Values joined by “and” are separate entries in the source; they are usually repeats but may differ in a detail not shown here. Identical values can stand only once.
Legend:
[1] = test system: S. aureus (Smith); assay: mouse protection test, CD50 (Table III); type: in vivo; settings: for F.I.C. Index / CD50 (mg/kg) Combination: S. aureus (Smith) in mice, dipeptide:D-cycloserine 10:1; for CD50 (mg/kg) Combination: amount of peptide only listed, D-cycloserine is 10% of it; for CD50 (mg/kg) Peptide: mice infected i.p. with S. aureus (Smith), dosed subcutaneously, 7 days survival, peptide alone
Protocol: (§1) Charles River mice, weighing approximately 20 g. each, are infected intraperitoneally with 10-100 times the LD of the infecting organism. At predetermined intervals post-infection, e.g., 1 and 5 hours, mice are dosed subcutaneously with graded doses of the halogenated peptide, antibiotic and combination thereof. The number of mice surviving each treatment for 7 days post-infection is observed and the CD50 is calculated. The fractional inhibitory concentration (F.I.C.) for each combination is calculated in the usual manner.
(§2) In this table, the following infecting microorganisms were used:
(§3) The infecting organisms are listed by the above code; the compounds are listed by their Example number. In all instances, the dipeptide and D-cycloserine were tested at a ratio of 10:1. The CD50 combination column lists only the amount of peptide present; the D-cycloserine amount is 10% of the listed amount.

[2] = test system: Strep. pyrogenes (C 203); assay: mouse protection test, CD50 (Table III); type: in vivo
Protocol: as §1, §2
Strep. pyrogenes (C 203).
as §3

[3] = test system: E. coli (Juhl); assay: serial dilution in synthetic medium in test tubes, MIC and F.I.C. index (Table II); type: cell-based; settings: for MIC: Escherichia coli
Protocol: The halogenated peptides alone, the antibiotic alone or mixtures of the halogenated peptides and selected antibiotics are prepared in sterile concentrated aqueous solutions at the desired ratios. Serial dilutions are made to give a range of concentrations of the test substances. Samples of the dilutions are mixed with an appropriate sterile synthetic medium in test tubes. The tubes are then inoculated with an appropriate test organism and incubated at 35°-37° C. for 16-20 hours. Minimum inhibitory concentrations, i.e., that concentration which inhibits visible growth, are read and the fractional inhibitory concentration indices (F.I.C.) are calculated. In all instances, E. coli (Juhl) was used as the infecting microorganism.

[4] = test system: E. coli (Juhl); assay: two-fold agar dilution assay, M.I.C.; type: cell-based
Text: (§4) In a two-fold agar dilution assay with E. coli (Juhl) and E. coli 6880 as test organisms, compounds of Examples 1 and 2 show a minimum inhibitory concentration (M.I.C.) of >800 ppm. […] The combination of the new peptide with D-cycloserine produces the following M.I.C. test results.

[5] = test system: E. coli 6880; assay: two-fold agar dilution assay, M.I.C.; type: cell-based
Text: as §4

[6] = test system: E. coli (305-101); assay: mouse protection test, CD50 (Table III); type: in vivo
Protocol: as §1, §2, §3

[7] = test system: E. coli (Juhl); assay: mouse protection test, CD50 (Table III); type: in vivo
Protocol: as §1, §2, §3

[8] = combination with D-cycloserine, ratio Pep/Antib. 1:1
[9] = combination with D-cycloserine, ratio Pep/Antib. 1:8
[10] = combination with D-cycloserine, ratio Pep/Antib. 8:1
[11] = Escherichia coli, substance alone, agar dilution, read-out: minimum inhibitory concentration (M.I.C.)
[12] = peptide:D-cycloserine ratio 1:1
[13] = peptide:D-cycloserine ratio 1:8
[14] = peptide:D-cycloserine ratio 8:1

CCC(N)C(=O)N[C@H](CF)C(=O)O (stereo partly drawn) [Example 17, L-αNH2 -But-βF-D-Ala]
F.I.C. Index [1]: 0.20
CD50 (mg/kg) Combination [1]: 2.6 mg/kg
CD50 (mg/kg) Peptide [1]: 13.7 mg/kg

Br.C[C@H](N)C(=O)N[C@H](CF)C(=O)O [Example 1, L-alanyl-β-fluoro-D-alanine hydrobromide]
F.I.C. Index ([2]; Strep. pyrogenes (C 203) in mice, dipeptide:D-cycloserine 10:1): 0.60
CD50 (mg/kg) Combination ([2]; Strep. pyrogenes (C 203) in mice, dipeptide:D-cycloserine 10:1, amount of peptide only listed, D-cycloserine is 10% of it): 10.9 mg/kg
CD50 (mg/kg) Peptide ([2]; mice infected i.p. with Strep. pyrogenes (C 203), dosed subcutaneously, 7 days survival, peptide alone): 17.8 mg/kg
MIC ([3]; combination with D-cycloserine, ratio Pep/Antib. 1:1, read-out: MIC ppm Pep/Antib., peptide part): 0.2 µg/mL
MIC ([3]; combination with D-cycloserine, ratio Pep/Antib. 1:8, read-out: MIC ppm Pep/Antib., peptide part): 0.2 µg/mL
MIC ([3]; combination with D-cycloserine, ratio Pep/Antib. 8:1, read-out: MIC ppm Pep/Antib., peptide part): 0.39 µg/mL
MIC ([3]; peptide alone, E. coli (Juhl), 35-37° C., 16-20 hours, read-out: MIC ppm Peptide): > 800 µg/mL
F.I.C. Index [3, 8]: 0.02
MIC ppm Pep/Antib., antibiotic part [3, 8]: 0.2 ppm
F.I.C. Index [3, 9]: 0.12
MIC ppm Pep/Antib., antibiotic part [3, 9]: 1.56 ppm
F.I.C. Index [3, 10]: 0.004
MIC ppm Pep/Antib., antibiotic part [3, 10]: 0.05 ppm
MIC [4, 11]: > 800 µg/mL
M.I.C. of combination, D-cycloserine part [4, 12]: 0.2 ppm
M.I.C. of combination, peptide part [4, 12]: 0.2 ppm
M.I.C. of combination, D-cycloserine part [4, 13]: 1.56 ppm
M.I.C. of combination, peptide part [4, 13]: 0.2 ppm
M.I.C. of combination, D-cycloserine part [4, 14]: 0.05 ppm
M.I.C. of combination, peptide part [4, 14]: 0.39 ppm
MIC [5, 11]: > 800 µg/mL
M.I.C. of combination, D-cycloserine part [5, 12]: 0.1 ppm
M.I.C. of combination, peptide part [5, 12]: 0.1 ppm
M.I.C. of combination, D-cycloserine part [5, 13]: 0.78 ppm
M.I.C. of combination, peptide part [5, 13]: 0.1 ppm
M.I.C. of combination, D-cycloserine part [5, 14]: 0.05 ppm
M.I.C. of combination, peptide part [5, 14]: 0.39 ppm
F.I.C. Index [1]: < 0.37
CD50 (mg/kg) Combination [1]: < 3.1 mg/kg
CD50 (mg/kg) Peptide [1]: 9.2 mg/kg
F.I.C. Index ([6]; E. coli (305-101) in mice, dipeptide:D-cycloserine 10:1): 0.90
CD50 (mg/kg) Combination ([6]; E. coli (305-101) in mice, dipeptide:D-cycloserine 10:1, amount of peptide only listed, D-cycloserine is 10% of it): 25 mg/kg
CD50 (mg/kg) Peptide ([6]; mice infected i.p. with E. coli (305-101), dosed subcutaneously, 7 days survival, peptide alone): 26 mg/kg

CC1(C)S[C@@H]2[C@H](NC(=O)C(C(=O)O)c3ccccc3)C(=O)N2[C@H]1C(=O)O (stereo partly shown) [carbencillin, reference compound]
MIC ppm Antibiotic ([3]; antibiotic alone, E. coli (Juhl), 35-37° C., 16-20 hours): 6.2 ppm

O=C(N[C@H](CF)C(=O)O)[C@@H]1CCCN1 [Example 7, L-Pro-βF-D-Ala]
F.I.C. Index [1]: 0.35
CD50 (mg/kg) Combination [1]: 3.7 mg/kg
CD50 (mg/kg) Peptide [1]: 12.2 mg/kg

NCC(=O)N[C@H](CCl)C(=O)O [Example 12, Gly-βCl-D-Ala]
F.I.C. Index [1]: 0.30
CD50 (mg/kg) Combination [1]: 17.4 mg/kg
CD50 (mg/kg) Peptide [1]: 155 mg/kg

CCCCCCC(N)C(=O)N[C@H](CF)C(=O)O (stereo partly drawn) [Example 20, D,L-α-amino-octanoyl-βF-D-Ala]
F.I.C. Index [1]: 0.10
CD50 (mg/kg) Combination [1]: 8.6 mg/kg
CD50 (mg/kg) Peptide [1]: 75.9 mg/kg

N[C@@H](Cc1ccccc1)C(=O)N[C@H](CF)C(=O)O [Example 5, L-Phe-βF-D-Ala]
F.I.C. Index [1]: 0.99
CD50 (mg/kg) Combination [1]: 13.6 mg/kg
CD50 (mg/kg) Peptide [1]: 14.4 mg/kg

NCCCC[C@H](N)C(=O)N[C@H](CF)C(=O)O [Example 6, L-Lys-βF-D-Ala]
F.I.C. Index [1]: 0.08 and 0.13
CD50 (mg/kg) Combination [1]: 6.8 mg/kg and 4.0 mg/kg

N[C@@H](CCC(=O)O)C(=O)N[C@H](CF)C(=O)O [Example 9, L-Glu-βF-D-Ala]
F.I.C. Index [3, 9]: 0.50
MIC ppm Pep/Antib., antibiotic part [3, 9]: 3.1 ppm
MIC ppm Pep/Antib., peptide part [3, 9]: 0.39 ppm
MIC ppm Peptide ([3]; peptide alone, E. coli (Juhl), 35-37° C., 16-20 hours): > 800 ppm
F.I.C. Index ([7]; E. coli (Juhl) in mice, dipeptide:D-cycloserine 10:1): 0.96
CD50 (mg/kg) Combination ([7]; E. coli (Juhl) in mice, dipeptide:D-cycloserine 10:1, amount of peptide only listed, D-cycloserine is 10% of it): 72 mg/kg
CD50 (mg/kg) Peptide ([7]; mice infected i.p. with E. coli (Juhl), dosed subcutaneously, 7 days survival, peptide alone): 81 mg/kg
F.I.C. Index [1]: 0.30
CD50 (mg/kg) Combination [1]: 7.6 mg/kg
CD50 (mg/kg) Peptide [1]: 28.5 mg/kg

From patent US4264590A, “Antibacterial peptide” (Abbott Laboratories, priority 1980, dated 1981)
